# Source: ChEMBL document CHEMBL1132664, “C32-O-phenalkyl ether derivatives of the immunosuppressant ascomycin: a tether length study” (Bioorg Med Chem Lett, 1999)
# Key:
# Mus musculus = species: Mus musculus; assay: In vitro immunosuppressive activity in murine splenic T cells; assay type: functional, cell-based; conditions: T-cell
# [1] = target: Peptidyl-prolyl cis-trans isomerase FKBP1A (Homo sapiens, UniProt P62942); assay: Effective concentration determined was towards FK506 binding protein 12 by competitive binding assay using [3H]-dihydro FK-506 as radioligand
# Chain of Peptidyl-prolyl cis-trans isomerase FKBP1A (P62942 whole entry): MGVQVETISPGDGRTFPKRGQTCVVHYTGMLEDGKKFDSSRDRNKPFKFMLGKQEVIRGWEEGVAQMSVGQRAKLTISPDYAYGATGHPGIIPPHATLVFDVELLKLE
Structure (SMILES),IC50 (Mus musculus),EC50 [1]
CC[C@@H]1/C=C(\C)C[C@H](C)C[C@H](OC)[C@H]2O[C@@](O)(C(=O)C(=O)N3CCCC[C@H]3C(=O)O[C@H](/C(C)=C/[C@@H]3CC[C@@H](OC(=O)Cc4ccccc4)[C@H](OC)C3)[C@H](C)[C@@H](O)CC1=O)[C@H](C)C[C@@H]2OC,3.5 nM,
CC[C@@H]1/C=C(\C)C[C@H](C)C[C@H](OC)[C@H]2O[C@@](O)(C(=O)C(=O)N3CCCC[C@H]3C(=O)O[C@H](/C(C)=C/[C@@H]3CC[C@@H](Oc4ccccc4)[C@H](OC)C3)[C@H](C)[C@@H](O)CC1=O)[C@H](C)C[C@@H]2OC,5.4 nM,12 nM
CC[C@@H]1/C=C(\C)C[C@H](C)C[C@H](OC)[C@H]2O[C@@](O)(C(=O)C(=O)N3CCCC[C@H]3C(=O)O[C@H](/C(C)=C/[C@@H]3CC[C@@H](OCCCc4ccccc4)[C@H](OC)C3)[C@H](C)[C@@H](O)CC1=O)[C@H](C)C[C@@H]2OC,3.5 nM,32 nM
CC[C@@H]1/C=C(\C)C[C@H](C)C[C@H](OC)[C@H]2O[C@@](O)(C(=O)C(=O)N3CCCC[C@H]3C(=O)O[C@H](/C(C)=C/[C@@H]3CC[C@@H](OCC(O)c4ccccc4)[C@H](OC)C3)[C@H](C)[C@@H](O)CC1=O)[C@H](C)C[C@@H]2OC (some centres undefined),0.18 nM,
C=C(CO[C@@H]1CC[C@@H](/C=C(\C)[C@H]2OC(=O)[C@@H]3CCCCN3C(=O)C(=O)[C@]3(O)O[C@H]([C@@H](OC)C[C@@H](C)C/C(C)=C/[C@@H](CC)C(=O)C[C@H](O)[C@H]2C)[C@@H](OC)C[C@H]3C)C[C@H]1OC)c1ccccc1,1 nM,
CC[C@@H]1/C=C(\C)C[C@H](C)C[C@H](OC)[C@H]2O[C@@](O)(C(=O)C(=O)N3CCCC[C@H]3C(=O)O[C@H](/C(C)=C/[C@@H]3CC[C@@H](OCCO)[C@H](OC)C3)[C@H](C)[C@@H](O)CC1=O)[C@H](C)C[C@@H]2OC,4.3 nM,
CC[C@@H]1/C=C(\C)C[C@H](C)C[C@H](OC)[C@H]2O[C@@](O)(C(=O)C(=O)N3CCCC[C@H]3C(=O)O[C@H](/C(C)=C/[C@@H]3CC[C@@H](OCc4ccccc4)[C@H](OC)C3)[C@H](C)[C@@H](O)CC1=O)[C@H](C)C[C@@H]2OC,3 nM,5.3 nM
CC[C@@H]1/C=C(\C)C[C@H](C)C[C@H](OC)[C@H]2O[C@@](O)(C(=O)C(=O)N3CCCC[C@H]3C(=O)O[C@H](/C(C)=C/[C@@H]3CC[C@@H](OCCc4ccccc4)[C@H](OC)C3)[C@H](C)[C@@H](O)CC1=O)[C@H](C)C[C@@H]2OC,0.61 nM,9.2 nM
CC[C@@H]1/C=C(\C)C[C@H](C)C[C@H](OC)[C@H]2O[C@@](O)(C(=O)C(=O)N3CCCC[C@H]3C(=O)O[C@H](/C(C)=C/[C@@H]3CC[C@@H](OCC(=O)c4ccccc4)[C@H](OC)C3)[C@H](C)[C@@H](O)CC1=O)[C@H](C)C[C@@H]2OC,0.27 nM,
CC[C@@H]1/C=C(\C)C[C@H](C)C[C@H](OC)[C@H]2O[C@@](O)(C(=O)C(=O)N3CCCC[C@H]3C(=O)O[C@H](/C(C)=C/[C@@H]3CC[C@@H](O)[C@H](OC)C3)[C@H](C)[C@@H](O)CC1=O)[C@H](C)C[C@@H]2OC [ASCOMYCIN],0.69 nM,
